Key:
[1] = target: RAC-beta serine/threonine-protein kinase (Homo sapiens, UniProt P31751); experiment: PKB In Vitro Enzyme Assay
[2] = target: cAMP-dependent protein kinase catalytic subunit alpha (Bos taurus, UniProt P00517); experiment: PKA In Vitro Enzyme Assay

Sequence of RAC-beta serine/threonine-protein kinase (P31751 whole entry): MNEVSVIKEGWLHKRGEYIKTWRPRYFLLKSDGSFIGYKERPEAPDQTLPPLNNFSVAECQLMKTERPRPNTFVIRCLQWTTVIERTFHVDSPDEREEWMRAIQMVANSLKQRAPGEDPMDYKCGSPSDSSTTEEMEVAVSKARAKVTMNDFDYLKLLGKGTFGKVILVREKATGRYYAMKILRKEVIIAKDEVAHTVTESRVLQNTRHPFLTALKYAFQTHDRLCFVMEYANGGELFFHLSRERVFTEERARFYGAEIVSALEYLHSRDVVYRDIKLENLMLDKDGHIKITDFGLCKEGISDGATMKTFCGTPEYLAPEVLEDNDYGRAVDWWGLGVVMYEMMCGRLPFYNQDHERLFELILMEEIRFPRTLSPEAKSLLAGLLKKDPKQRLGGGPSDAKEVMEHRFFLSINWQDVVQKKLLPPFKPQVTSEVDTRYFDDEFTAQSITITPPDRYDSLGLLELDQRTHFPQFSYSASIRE

SMILES | IC50 [1] [nM] | IC50 ([1]; pH 7.2, 22 °C) [nM] | other results
O=S(=O)(NCC1CCNCC1)c1cccc2cnccc12 [Isoquinoline-5-sulfonic acid (piperidin-4-ylmethyl)amide] | 57000 |  | 
O=S(=O)(NC1CCNCC1)c1cccc2cnccc12 [N-(piperidin-4-yl)isoquinoline-5-sulfonamide] |  | 8700 | IC50 ([2]; pH 7.2, 22 °C): 3900 nM
O=S(=O)(NC[C@@H]1C[C@@H](OCc2ccc(Cl)cc2)CN1)c1cccc2cnccc12 [Isoquinoline-5-sulfonic acid (2S,4R)-(4-(4-chlorobenzyloxy)pyrrolidin-2-yl-methyl)amide] | 1700 |  | IC50 [2]: 400 nM
N[C@H]1CC[C@H](NS(=O)(=O)c2cccc3cnccc23)CC1 [Isoquinoline-5-sulfonic acid trans-(4-aminocyclohexyl)amide] | 8100 |  | IC50 [2]: 5700 nM
COc1cccc(COCCNCCNS(=O)(=O)c2cccc3cnccc23)c1 [Isoquinoline-5-sulfonic acid (2-(2-(3-methoxybenzyloxy)ethylamino)ethyl)amide] |  | 2200 | 
O=S(=O)(NC[C@@H]1C[C@H](OCc2ccccc2)CN1)c1cccc2cnccc12 [Isoquinoline-5-sulfonic acid (2S,4S)-(4-(benzyloxy)pyrrolidin-2-yl-methyl)amide] | 3400 |  | 
O=S(=O)(NC[C@@H]1CCCN1)c1cccc2cnccc12 [N-[(2S)-pyrrolidin-2-ylmethyl]isoquinoline-5-sulfonamide] | 39000 |  | 
O=S(=O)(NCCNCCOCc1ccccc1)c1cccc2cnccc12 [N-(2-{[2-(benzyloxy)ethyl]amino}ethyl)isoquinoline-5-sulfonamide] |  | 1170 | 
COc1ccc(COCCNCCNS(=O)(=O)c2cccc3cnccc23)cc1 [N-[2-({2-[(4-methoxyphenyl)methoxy]ethyl}amino)ethyl]isoquinoline-5-sulfonamide] |  | 2900 | 
O=S(=O)(NC[C@H]1CC[C@@H](COCc2ccc(Cl)cc2)N1)c1cccc2cnccc12 [Isoquinoline-5-sulfonic acid (2R*,5S*)-(5-(4-chlorobenzyloxymethyl)pyrrolidin-2-yl-methyl)amide] | 1700 |  | 
Cc1ccc(COCCNCCNS(=O)(=O)c2cccc3cnccc23)cc1 [Isoquinoline-5-sulfonic acid (2-(2-(4-methylbenzyloxy)ethylamino)ethyl)amide] |  | 1530 | 
O=c1[nH]ccc2c(S(=O)(=O)N[C@@H]3CN[C@H](COCc4ccc(Cl)cc4)C3)cccc12 [N-[(3S,5S)-5-{[(4-chlorophenyl)methoxy]methyl}pyrrolidin-3-yl]-1-hydroxyisoquinoline-5-sulfonamide] | 520 |  | IC50 [2]: 1300 nM
Cc1cccc(COCCNCCNS(=O)(=O)c2cccc3cnccc23)c1 [N-[2-({2-[(3-methylphenyl)methoxy]ethyl}amino)ethyl]isoquinoline-5-sulfonamide] |  | 1100 | 
CNCCNS(=O)(=O)c1cccc2cnccc12 [N-[2-(methylamino)ethyl]isoquinoline-5-sulfonamide] | 7600 |  | 
COc1ccccc1COCCNCCNS(=O)(=O)c1cccc2cnccc12 [N-[2-({2-[(2-methoxyphenyl)methoxy]ethyl}amino)ethyl]isoquinoline-5-sulfonamide] |  | 6600 | 
NCCCNS(=O)(=O)c1cccc2cnccc12 [N-(3-aminopropyl)isoquinoline-5-sulfonamide] |  | 4800 | 
O=S(=O)(NCCNCCOCc1cccc(Cl)c1)c1cccc2cnccc12 [Isoquinoline-5-sulfonic acid (2-(2-(3-chlorobenzyloxy)ethylamino)ethyl)amide] |  | 370 | IC50 ([2]; pH 7.2, 22 °C): 410 nM
O=S(=O)(N[C@H]1CC[C@H](NCc2ccccc2)CC1)c1cccc2cnccc12 [N-[4-(benzylamino)cyclohexyl]isoquinoline-5-sulfonamide] | 6600 |  | 
O=S(=O)(NCCNCCOCc1ccccc1Cl)c1cccc2cnccc12 [N-[2-({2-[(2-chlorophenyl)methoxy]ethyl}amino)ethyl]isoquinoline-5-sulfonamide] |  | 960 | IC50 ([2]; pH 7.2, 22 °C): 1000 nM
Cc1ccccc1COCCNCCNS(=O)(=O)c1cccc2cnccc12 [N-[2-({2-[(2-methylphenyl)methoxy]ethyl}amino)ethyl]isoquinoline-5-sulfonamide] |  | 570 | 
O=S(=O)(NCCNCCOCc1ccc(Cl)c(Cl)c1)c1cccc2cnccc12 [Isoquinoline-5-sulfonic acid (2-(2-(3,4-dichlorobenzyloxy)ethylamino)ethyl)amide] |  | 210 | 
O=S(=O)(N[C@@H]1CN[C@H](COCc2ccc(Cl)cc2)C1)c1cccc2cnccc12 [N-[(3S,5S)-5-{[(4-chlorophenyl)methoxy]methyl}pyrrolidin-3-yl]isoquinoline-5-sulfonamide] | 780 |  | IC50 [2]: 420 nM
O=S(=O)(c1cccc2cnccc12)N1CCNCC1 [Isoquinoline-5-sulfonic acid piperazin-1 ylamide] |  | 23000 | 
Cc1cncc2cccc(S(=O)(=O)N[C@@H]3CN[C@H](COCc4ccc(Cl)cc4)C3)c12 [N-[(3S,5S)-5-{[(4-chlorophenyl)methoxy]methyl}pyrrolidin-3-yl]-4-methylisoquinoline-5-sulfonamide] | 2600 |  | IC50 [2]: 320 nM
O=S(=O)(NC1CCNC1)c1cccc2cnccc12 (stereo unspecified) [Isoquinoline-5-sulfonic acid pyrrolidin-3-ylamide] | 3900 |  | 
O=S(=O)(NC[C@@H]1C[C@H](OCc2ccc(Cl)cc2)CN1)c1cccc2cnccc12 [N-{[(2S,4S)-4-[(4-chlorophenyl)methoxy]pyrrolidin-2-yl]methyl}isoquinoline-5-sulfonamide] | 480 |  | IC50 [2]: 170 nM
O=S(=O)(N[C@H]1CN[C@H](COCc2ccc(Cl)cc2)C1)c1cccc2cnccc12 [N-[(3R,5S)-5-{[(4-chlorophenyl)methoxy]methyl}pyrrolidin-3-yl]isoquinoline-5-sulfonamide] | 5200 |  | 

Reference: BindingDB's records for doi:10.1016/j.bmc.2005.09.055 (Uk Centre For Cancer Therapeutics, 2006)
